Values joined by “and” are separate entries in the source; they are usually repeats but may differ in a detail not shown here. Equal entries are not always repeated. Marks after values point to notes of the source that are not given here.
Columns and labels:
[1] = test system: human subjects with a history of nephrolithiasis; assay: Renal function measures and serum urate in 4-week double-blind phase 2 study and open-label long-term febuxostat study; format: in vivo; conditions: for Measured Creatinine Clearance / Serum Creatinine / Urine Uric Acid / Estimated GFR / Serum Urate: individual subjects
Description: (1) febuxostat 40 mg per day, (2) febuxostat 80 mg per day, (3) febuxostat 120 mg per day, or (4) placebo. Subjects completing the double-blind study entered an open-label, long-term study and began treatment with 80 mg febuxostat per day. Febuxostat doses could be titrated over the initial 6 months to 40 mg or 120 mg febuxostat per day based on the subjects' serum urate levels and the occurrence of adverse events. In the study subset, a post-hoc analysis of nephrolithiasis outcome in the study subjects (n=13) who had received febuxostat for ≧30 months. In the event of an occurrence of renal calculus formation, all such stones were analyzed for mineral content. The following were the criteria for inclusion in the study: (1) a history or presence of gout as defined by the American Rheumatism Association Preliminary criteria; […] (3) serum urate level of ≧8.0 mg/dL at the start of the double-blind study. The following were the criteria for exclusion from the study: […]

[2] = test system: normal Sprague-Dawley rats; assay: Water intake in normal rats (earlier data of the laboratory); format: in vivo; conditions: previous data of this laboratory
[3] = test system: hyperuricemic gout patients; assay: FOCUS long-term open-label study: eGFR, serum creatinine and serum urate; format: in vivo, human; conditions: for GFR (estimated by MDRD, mean) / sCr (mean) / sUA (mean): all subjects
Description: The objective of this study was to assess the long-term renal function effects, measured as estimated GFR (eGFR), in a cohort of hyperuricemic gout patients treated febuxostat. Febuxostat was administered at a dosing regimen that chronically maintained a serum urate level (sUA) of <6.0 mg/dL. Of 145 subjects completing a 28-day, double-blind, placebo-controlled trial (See, Becker M A, Schumacher H R, Jr., Wortmann R L, MacDonald P A, Palo […], et al., “Febuxostat, a novel nonpurine selective inhibitor of xanthine oxidase: a twenty-eight-day, multicenter, phase II, randomized, double-blind, placebo-controlled, dose-response clinical trial examining safety and efficacy in patients with gout.” Arthritis and rheumatism, March: 52(3):916-23 (2005)), 116 enrolled in the long-term, 5.5 year Febuxostat Open-label Clinical trial of Urate-lowering efficacy and […] (FOCUS) study. Baseline data were collected upon entry to the initial 28-day trial. Subjects initially received febuxostat 80 mg/day; between weeks 4 to 24 the dose of febuxostat could be titrated to 40 or 120 mg/day to maintain a sUA between <6.0 mg/dL but not lower than 3.0 mg/dL. Age 18 to 85 years with a history or presence of gout as defined by the American College of Rheumatology (Wallace S L, Robinson […], Yu T F, “Preliminary criteria for the classification of the acute arthritis of primary gout.” Arthritis and rheumatism. 1977 April; 20(3):895-900 (1977)). sUA level of ≧8.0 mg/dL at screening for the initial 28-day, double-blind study. […] GFR was estimated (eGFR) using the Modification of Diet in Renal Disease (MDRD) equation shown below: […] otherwise, S=0.742 if subject is female and 1 if male. The predictors, time (year), average sUA on study drug, baseline eGRF, and sUA change from baseline were evaluated for a relationship to eGFR change from baseline using a repeated measures linear model. Backwards selection (p=0.1) was used to reduce the model down to those predictors that best explained the eGRF change from baseline.

[4] = double-blind Wk 4, DB dose 40 mg/day
[5] = double-blind Wk 4, DB dose 80 mg/day
[6] = double-blind Wk 4, DB dose 120 mg/day
[7] = open-label Yr 1, OL dose 80 mg/day
[8] = open-label Yr 1, OL dose 120 mg/day
[9] = open-label Yr 2, OL dose 80 mg/day
[10] = open-label Yr 2, OL dose 120 mg/day
[11] = open-label Yr 3, OL dose 80 mg/day
[12] = open-label Yr 3, OL dose 120 mg/day

Cc1nc(-c2ccc(OCC(C)C)c(C#N)c2)sc1C(=O)O [febuxostat, 2-[3-cyano-4-(2-methylpropoxy)phenyl]-4-methylthiazole-5-carboxylic acid]
Measured Creatinine Clearance [1, 4]: 82 mL/min and 56 mL/min | Serum Creatinine [1, 4]: 1.2 mg/dL and 1.3 mg/dL | Urine Uric Acid [1, 4]: 504 mg/day and 202 mg/day | Measured Creatinine Clearance [1, 5]: 103 mL/min and 147 mL/min and 93 mL/min and 88 mL/min and 63 mL/min and 64 mL/min and 94 mL/min | Serum Creatinine [1, 5]: 1.1 mg/dL (3×) and 1.2 mg/dL (3×) and 1.5 mg/dL | Urine Uric Acid [1, 5]: 387 mg/day and 504 mg/day and 319 mg/day and 286 mg/day and 235 mg/day and 185 mg/day and 403 mg/day | Measured Creatinine Clearance [1, 6]: 38 mL/min | Serum Creatinine [1, 6]: 1.4 mg/dL | Urine Uric Acid [1, 6]: 17 mg/day | Estimated GFR [1, 7]: 80 mL/min and 73 mL/min (2×) and 67 mL/min and 68 mL/min (2×) and 57 mL/min and 61 mL/min and 54 mL/min and 33 mL/min and 49 mL/min | Serum Creatinine [1, 7]: 1.1 mg/dL (2×) and 1.2 mg/dL (4×) and 1.4 mg/dL (2×) and 1.3 mg/dL and 1.6 mg/dL and 1.5 mg/dL | Serum Urate [1, 7]: 4.3 mg/dL and 5.9 mg/dL and 4.4 mg/dL (2×) and 6.1 mg/dL and 4.5 mg/dL and 6.4 mg/dL and 4.1 mg/dL and 3.6 mg/dL and 7.4 mg/dL and 4.6 mg/dL | Estimated GFR [1, 8]: 63 mL/min and 84 mL/min | Serum Creatinine [1, 8]: 1.2 mg/dL and 1.0 mg/dL | Serum Urate [1, 8]: 3.1 mg/dL and 4.6 mg/dL | Estimated GFR [1, 9]: 72 mL/min and 80 mL/min and 74 mL/min and 61 mL/min and 62 mL/min and 56 mL/min and 59 mL/min and 39 mL/min and 49 mL/min and 73 mL/min and 75 mL/min | Serum Creatinine [1, 9]: 1.2 mg/dL and 1.1 mg/dL (4×) and 1.3 mg/dL (3×) and 1.4 mg/dL (2×) and 1.5 mg/dL | Serum Urate [1, 9]: 4.1 mg/dL and 4.2 mg/dL and 4.8 mg/dL and 7.6 mg/dL and 6.4 mg/dL and 9.7 mg/dL and 5.4 mg/dL and 4.7 mg/dL and 6.0 mg/dL and 4.4 mg/dL and 5.7 mg/dL | Estimated GFR [1, 10]: 58 mL/min and 75 mL/min | Serum Creatinine [1, 10]: 1.3 mg/dL and 1.1 mg/dL | Serum Urate [1, 10]: 3.0 mg/dL and 4.2 mg/dL | Estimated GFR [1, 11]: 72 mL/min (2×) and 66 mL/min and 61 mL/min and 57 mL/min and 51 mL/min and 54 mL/min and 39 mL/min and 40 mL/min and 65 mL/min and 67 mL/min | Serum Creatinine [1, 11]: 1.2 mg/dL (5×) and 1.3 mg/dL and 1.4 mg/dL (3×) and 1.5 mg/dL and 1.8 mg/dL | Serum Urate [1, 11]: 5.8 mg/dL (2×) and 3.2 mg/dL and 3.9 mg/dL and 3.3 mg/dL and 7.5 mg/dL and 4.6 mg/dL and 3.8 mg/dL (2×) and 6.8 mg/dL and 5.2 mg/dL | Estimated GFR [1, 12]: 57 mL/min and 52 mL/min | Serum Creatinine [1, 12]: 1.3 mg/dL and 1.5 mg/dL | Serum Urate [1, 12]: 3.3 mg/dL and 3.8 mg/dL | Renal function throughout the study ([1]; subjects receiving febuxostat): maintained at generally stable levels | Effect on water intake [2]: no effect on water intake | Measures of renal function (GFR estimated by MDRD and sCr) (in words) ([3]; 5-year study period): stable over the 5-year study period | Baseline eGFR in a subsequent febuxostat study vs FOCUS baseline (in words) ([3]; 18 subjects who completed FOCUS and enrolled in another febuxostat study): all but 1 of these subjects had a baseline eGRF in the new study that was higher | GFR (estimated by MDRD, mean) ([3]; Year 1 (n = 115)): 65.7 mL/min | sCr (mean) ([3]; Year 1 (n = 115)): 1.2 mg/dL | sUA (mean) ([3]; Year 1 (n = 115), excludes initial 28-day trial): 5.1 mg/dL | GFR (estimated by MDRD, mean) ([3]; Year 2 (n = 84)): 66.0 mL/min | sCr (mean) ([3]; Year 2 (n = 84)): 1.2 mg/dL | sUA (mean) ([3]; Year 2 (n = 84)): 5.1^b mg/dL | GFR (estimated by MDRD, mean) ([3]; Year 3 (n = 71)): 63.2 mL/min | sCr (mean) ([3]; Year 3 (n = 71)): 1.3 mg/dL | sUA (mean) ([3]; Year 3 (n = 71)): 5.0 mg/dL | GFR (estimated by MDRD, mean) ([3]; Year 4 (n = 67)): 64.2 mL/min | sCr (mean) ([3]; Year 4 (n = 67)): 1.3 mg/dL | sUA (mean) ([3]; Year 4 (n = 67)): 4.7^b mg/dL | GFR (estimated by MDRD, mean) ([3]; Year 5 (n = 60)): 65.0 mL/min | sCr (mean) ([3]; Year 5 (n = 60)): 1.3 mg/dL | sUA (mean) ([3]; Year 5 (n = 60)): 4.8 mg/dL | mean serum urate (sUA) ([3]; baseline GFR <60, Year 1): 5.1 mg/dL | mean serum urate (sUA) ([3]; baseline GFR <60, Year 2): 4.8 mg/dL | mean serum urate (sUA) ([3]; baseline GFR <60, Year 3): 4.8 mg/dL | mean serum urate (sUA) ([3]; baseline GFR <60, Year 4): 4.5 mg/dL | mean serum urate (sUA) ([3]; baseline GFR <60, Year 5): 4.6 mg/dL | mean serum urate (sUA) ([3]; baseline GFR ≧60, Year 1): 5.2 mg/dL | mean serum urate (sUA) ([3]; baseline GFR ≧60, Year 2): 5.1 mg/dL | mean serum urate (sUA) ([3]; baseline GFR ≧60, Year 3): 5.1 mg/dL | mean serum urate (sUA) ([3]; baseline GFR ≧60, Year 4): 4.7 mg/dL | mean serum urate (sUA) ([3]; baseline GFR ≧60, Year 5): 4.9 mg/dL | eGFR benefit (in words) ([3]; limited data obtained during Year 6): even greater evidence of eGFR benefit | Predicted eGFR improvement for each 1.0 mg/dL reduction in sUA ([3]; modeling, repeated measures linear model): 1.0 mL/min | Relationship of sUA reduction from baseline to eGFR (in words) ([3]; p=0.02): correlated with greater improvements in eGFR over time | Maintenance of sUA ([3]; throughout the study, regardless of baseline eGFR): < 6.0 mg/dL

From patent publication US20130143886A1, “METHODS FOR PRESERVING AND/OR INCREASING RENAL FUNCTION USING XANTHINE OXIDOREDUCTASE INHIBITORS” (priority 2006, published 2013)
